Patent US20240238422A1 (Osprey Biopharmaceuticals, Inc., priority 2021, published 2024)
“Also recorded” adds a separate entry of the source.

Assays:
[1] = system: C57BL/6 mice; experiment: Serum IgG response to hen egg white lysozyme (HEL) in mice; assay type: in vivo, mouse; conditions: Example 20: 4 weekly 200 μg i.v. doses (days 0, 7, 14, and 21), day 27
Procedure: On study day −1, animals were randomized into treatment groups based on body weight. On study day 0, animals were bled for baseline serum and then injected IV with adalimumab, adalimumab-Siglec Ligand conjugate, or PBS vehicle. The individual adalimumab-based antigens were prepared by making a 0.8 mg/ml antigen solution in sterile buffered saline. Animals were then injected with 0.1 ml (^˜4 ml/kg) of the 0.8 mg/ml antigen via the tail vein. The total dose based on a 20 g mouse would be 4 mg/kg. Mice were subsequently administered 200 μg HEL on days 7, 14, and 21. Whole blood was collected into Microvette EDTA capillary collection tubes (Sarstedt Inc) and then further processed following the manufacturer's instructions for serum collection. Samples were stored at −80 C until analysis was performed.
(§1) ADA assays were performed on 96-well assay plates (Nunc Plates, Black 96-Well Immuno Plates, Thermo Scientific, 437111) coated with antigen as follows. […] The excitation and emission settings for the QuantaBlu Fluorogenic Peroxide Substrates are 325 nm and 420 nm and the relative florescence units were measured using a SpectraMax plate reader. […] Titers were determined by the dilution of serum that gives a 2× OD above background.
On study day −1, animals were randomized into treatment groups based on body weight. […] Serum IgG levels against HEL/HEL conjugate were measured at day 27. […]

[2] = system: C57BL/6 mice; experiment: Anti-drug antibody (serum IgG titer) response to adalimumab and conjugates in mice; assay type: in vivo, mouse
Procedure: To evaluate the production of antibodies specific to adalimumab and/or adalimumab-Siglec Ligand conjugates, C57BL/6 mice were immunized through intravenous injection with adalimumab or Siglec Ligand-conjugated adalimumab. On study day −1, animals were randomized into treatment groups based on body weight. On study day 0, animals were bled for baseline serum and then injected IV with adalimumab or the adalimumab-Siglec Ligand conjugates. The individual antigens were prepared by making a 0.8 mg/ml antigen solution in sterile buffered saline. Animals were then injected with 0.1 ml (^˜4 ml/kg) of the 0.8 mg/ml antigen via the tail vein. The total dose based on a 20 g mouse would be 4 mg/kg. Animals were bled via the retro-orbital sinus weekly throughout the study under inhaled isoflurane anesthesia. On study day, 28 animals were anesthetized with inhaled isoflurane anesthesia and then bled via cardiac puncture and then sacrificed by cervical dislocation. […]
as §1, with “antigen,” for “antigen”, “background. […]” for “background.”

[3] = biological target: Human TNFα (Homo sapiens, UniProt P01375); experiment: TNFα - Adalimumab/Adalimumab-Siglec Ligand Conjugate SPR Binding Assays; conditions: TNFα analyte, test article on Protein A chip, 1:1 binding model
Procedure: Binding experiments of Adalimumab Conjugates were performed on a Biacore 8K+ using a Cytiva Protein A Chip Series S (Cat #29127555). Briefly, conjugates were diluted in running buffer (HBS-EP+) and scouted for a concentration yielding about 30 RU of response after 20 seconds of injection at 30 μL/min on the active surface (flow cell 2). Human TNFα was serially diluted in running buffer 1:1 from 100 nM to 0.1953 nM and then injected across both the reference (flow cell 1) and active surface (flow cell 2) for 120 seconds at 30 μL/min and allowed to dissociate for 600 s. […] Sensorgrams were fitted to a 1:1 binding model in Biacore Insight Evaluation Software Version 3.0.11.15423.

Sequence of Human TNFα (P01375 77-233 limits assumed): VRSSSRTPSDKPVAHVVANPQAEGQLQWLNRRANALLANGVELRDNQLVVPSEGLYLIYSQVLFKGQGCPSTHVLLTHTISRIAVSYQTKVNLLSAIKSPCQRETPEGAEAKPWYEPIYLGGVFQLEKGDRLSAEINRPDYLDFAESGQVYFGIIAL

Substance	IgG response to HEL/HEL conjugate (immunogenicity) [1]	anti-drug antibody response (mouse serum IgG titer against adalimumab/adalimumab conjugates) ([2]; Example 14: single 4 mg/kg i.v. dose, days 14, 21, and 28, GAL and PEG linkers, listed as adalimumab hIgG1, 4 mg/kg)	IgG response against adalimumab/adalimumab conjugate ([2]; Example 19: 4 mg/kg day 0, then weekly 200 μg HEL, day 28)	Kd [3] [nM]	Rmax (RU) [3] [RU]	ka [3] [M⁻¹ s⁻¹]	kd [3] [s⁻¹]
Siglec Ligand-HEL conjugates: hen egg white lysozyme conjugated with monovalent BPC-Neu5Gc PEG ligand-linker, LDR of 1.6	completely suppressed for immunogenicity						
Adalimumab		highly immunogenic in mice; also recorded: high mouse IgG serum titers	strong IgG response	1.46	10.6	245000	0.000357
HEL: hen egg white lysozyme (Sigma, L4919-1G), standard immunogen [reference compound]	vigorous IgG responses to HEL						
